Where a name gives a salt, the structure may show the parent alone.
What was measured:
[1] = system: human cytochrome P450 3A4; set-up: method as in PMID 29441353; conditions: in vitro; read-out: Half maximum inhibitory concentration; cited from earlier work
[2] = Mass balance: excretion of total radioactivity in urine and feces; format: in vivo, human
Protocol: The urine samples were collected before orally administration and 0–2648 h after orally administration. […] In the process of collecting urine and feces samples of the six patients, because of the excretion particularity of the drug, the samples were not collected continuously every day, but once a week or every 10 days. In this case, the calculation of excretion rate during non-collected days was the multiplication of the first-day excretion rate after non-collected days by the number of non-collected days.
Levels of radioactivity in plasma, urine, and extracts of fecal samples were determined by mixing individual samples with 5 mL scintillation cocktail and determined by counting directly in a liquid scintillation counter (LSC). Blood, fecal homogenates, and post extraction solids were combusted with OX-501 Biological Sample Oxidizer, the ^14CO2 formed were trapped directly in 15 mL scintillation cocktail, followed by counting with LSC. Samples were assayed with a liquid scintillation counter for 5 min.

[3] = Adverse events after a single dose of 14C anlotinib suspension; format: in vivo, human; conditions: D1 ~ D18, N = 6

Recovery of radioactivity in feces, average ([2]; 0 ~ 2648 h, six patients): 48.52 % dose
Recovery of radioactivity in urine, average ([2]; 0 ~ 2648 h, six patients): 13.51 % dose
Total recovery rate of radioactivity (urine and feces), average ([2]; 0 ~ 2648 h, six patients): 62.03 % dose
Feces (% dose) ([2]; Subject 01, 0 ~ 2648 h): 50.73 % dose
Total recovery rate (% dose) ([2]; Subject 01, 0 ~ 2648 h): 66.24 % dose
Urine (% dose) ([2]; Subject 01, 0 ~ 2648 h): 15.51 % dose
Feces (% dose) ([2]; Subject 02, 0 ~ 2648 h): 42.51 % dose
Total recovery rate (% dose) ([2]; Subject 02, 0 ~ 2648 h): 60.96 % dose
Urine (% dose) ([2]; Subject 02, 0 ~ 2648 h): 18.45 % dose
Feces (% dose) ([2]; Subject 03, 0 ~ 2648 h): 38.93 % dose
Total recovery rate (% dose) ([2]; Subject 03, 0 ~ 2648 h): 50.92 % dose
Urine (% dose) ([2]; Subject 03, 0 ~ 2648 h): 11.99 % dose
Feces (% dose) ([2]; Subject 04, 0 ~ 2648 h): 56.80 % dose
Total recovery rate (% dose) ([2]; Subject 04, 0 ~ 2648 h): 69.09 % dose
Urine (% dose) ([2]; Subject 04, 0 ~ 2648 h): 12.29 % dose
Feces (% dose) ([2]; Subject 05, 0 ~ 2648 h): 59.44 % dose
Total recovery rate (% dose) ([2]; Subject 05, 0 ~ 2648 h): 71.86 % dose
Urine (% dose) ([2]; Subject 05, 0 ~ 2648 h): 12.42 % dose
Feces (% dose) ([2]; Subject 06, 0 ~ 2648 h): 42.69 % dose
Total recovery rate (% dose) ([2]; Subject 06, 0 ~ 2648 h): 53.08 % dose
Urine (% dose) ([2]; Subject 06, 0 ~ 2648 h): 10.39 % dose
Radioactive concentration in feces ([2]; after 404–432 h): 4876 DPM/ml
Radioactive concentration in urine ([2]; after 404–432 h): 279 DPM/ml
Structure (SMILES): COc1cc2c(Oc3ccc4[nH]c(C)cc4c3F)ccnc2cc1OCC1(N)CC1 [anlotinib, 1-[[4-(4-fluoro-2-methyl-1H-indol-5-yloxy)-6-methoxyquinolin-7-yl]oxy]methyl) cyclopropanamine dihydrochloride]
IC50 [1]: 110 nM
Alkaline phosphatase increased: number of cases of grade 1/2 (%) [3]: 1 (16.67%) n (%)
Alkaline phosphatase increased: number of cases of grade 3 (%) [3]: 0 n (%)
Anemia: number of cases of grade 1/2 (%) [3]: 1 (16.67%) n (%)
Anemia: number of cases of grade 3 (%) [3]: 0 n (%)
Aspartate aminotransferase increased: number of cases of grade 1/2 (%) [3]: 0 n (%)
Aspartate aminotransferase increased: number of cases of grade 3 (%) [3]: 1 (16.67%) n (%)
At least once (any adverse event): number of cases of grade 1/2 (%) [3]: 5 (83.33%) n (%)
At least once (any adverse event): number of cases of grade 3 (%) [3]: 3 (50%) n (%)
Constipation: number of cases of grade 1/2 (%) [3]: 2 (33.33%) n (%)
Constipation: number of cases of grade 3 (%) [3]: 0 n (%)
Cough: number of cases of grade 1/2 (%) [3]: 1 (16.67%) n (%)
Cough: number of cases of grade 3 (%) [3]: 0 n (%)
Diarrhea: number of cases of grade 1/2 (%) [3]: 1 (16.67%) n (%)
Diarrhea: number of cases of grade 3 (%) [3]: 0 n (%)
Hemoptysis: number of cases of grade 1/2 (%) [3]: 0 n (%)
Hemoptysis: number of cases of grade 3 (%) [3]: 0 n (%)
Hypertriglyceridemia: number of cases of grade 1/2 (%) [3]: 1 (16.67%) n (%)
Hypertriglyceridemia: number of cases of grade 3 (%) [3]: 0 n (%)
Hypoalbuminemia: number of cases of grade 1/2 (%) [3]: 3 (50%) n (%)
Hypoalbuminemia: number of cases of grade 3 (%) [3]: 0 n (%)
Hypocalcemia: number of cases of grade 1/2 (%) [3]: 1 (16.67%) n (%)
Hypocalcemia: number of cases of grade 3 (%) [3]: 0 n (%)
Hypophosphatemia: number of cases of grade 1/2 (%) [3]: 1 (16.67%) n (%)
Hypophosphatemia: number of cases of grade 3 (%) [3]: 1 (16.67%) n (%)
Hypothyroidism: number of cases of grade 1/2 (%) [3]: 1 (16.67%) n (%)
Hypothyroidism: number of cases of grade 3 (%) [3]: 0 n (%)
Increased alanine aminotransferase: number of cases of grade 1/2 (%) [3]: 1 (16.67%) n (%)
Increased alanine aminotransferase: number of cases of grade 3 (%) [3]: 1 (16.67%) n (%)
Increased blood bilirubin: number of cases of grade 1/2 (%) [3]: 1 (16.67%) n (%)
Increased blood bilirubin: number of cases of grade 3 (%) [3]: 1 (16.67%) n (%)
Increased lactate dehydrogenase: number of cases of grade 1/2 (%) [3]: 1 (16.67%) n (%)
Increased lactate dehydrogenase: number of cases of grade 3 (%) [3]: 0 n (%)
Increased lipase: number of cases of grade 1/2 (%) [3]: 2 (33.33%) n (%)
Increased lipase: number of cases of grade 3 (%) [3]: 2 (33.33%) n (%)
Increased γ-glutamyl transpeptidase: number of cases of grade 1/2 (%) [3]: 1 (16.67%) n (%)
Increased γ-glutamyl transpeptidase: number of cases of grade 3 (%) [3]: 1 (16.67%) n (%)
Insomnia: number of cases of grade 1/2 (%) [3]: 2 (33.33%) n (%)
Insomnia: number of cases of grade 3 (%) [3]: 0 n (%)
Liver function damage: number of cases of grade 1/2 (%) [3]: 0 n (%)
Liver function damage: number of cases of grade 3 (%) [3]: 1 (16.67%) n (%)
Proteinuria: number of cases of grade 1/2 (%) [3]: 1 (16.67%) n (%)

From publication PMC7188728, “A phase I study investigation of metabolism, and disposition of [^14C]-anlotinib after an oral administration in patients with advanced refractory solid tumors” (Cancer Chemotherapy and Pharmacology, 2020)
